For nine molecules, CC50 and IC50 results are on record in patent publication US20230286969A1, “AROMATIC SPIRO RING AMIDE DERIVATIVES FOR THE TREATMENT AND PROPHYLAXIS OF HEPATITIS B VIRUS INFECTION” (Hoffmann-La Roche Inc., priority 2020, published 2023).

Common to all, as to type: cell-based
A short description of series [1]: PHH natural infection assay, cytotoxicity (Cell Counting Kit-8). Conditions: human, HBV-infected primary human hepatocytes, CCK8, end of treatment. The procedure: (§1) Detailed procedures regarding primary human hepatocyte (PHH) HBV natural infection assay are described as below. One tube of frozen PHH (10 million cells) is thawed in 37° C. water bath and then transferred to 20 mL of PHH thawing medium (Sigma, InVitroGRO HT Medium, Cat. S03319) with gently mixing. The cells were then centrifuged at […] for 5 min, the supernatant was discarded and the tube was refilled with 25 mL of PHH plating medium (Sigma, InVitroGRO CP Medium, Cat. S03317). The tube was shaken very gently to re-suspend all cells, and then 50 μl of cells were transferred to each well 384-well collagen I coated plate with appropriate liquid handling equipment, e.g. Integra VIAFLO384 or Agilent Bravo. The cells were then cultured for 24 hours in a cell incubator. For HBV infection, after PHH attachment on the culture plate, the plating medium was removed and replenished with PHH culture medium containing HBV virus. The PHH culture medium was prepared with Dulbecco's Modified Eagle Medium (DMEM)/F12 (1:1 in volume ratio) containing 10% fetal bovine serum (Gibco, Cat. 10099141), 5 ng/mL human epidermal growth factor (Gibco, Cat.PHG0311L), 20 ng/mL dexamethasone (Sigma, Cat.D4902-100 mg), 250 ng/mL human recombinant insulin (Gibco, Cat.41400045) and 100 U/mL penicillin. HBV virus at 200 genome equivalent (GE) per cell with 4% PEG8000 (Sigma, Cat.P1458) containing culture medium were added to the PHH culture medium for infection. The cells were then cultured for 24 hours in cell incubator. Then the cell culture supernatant was removed. The HBV-infected PHH were cultured with sandwich culture method with PHH culture medium containing 1% DMSO and 0.25 mg/mL matrix gel for 72 hours. The supernatant was then refreshed with PHH culture medium containing different concentrations of testing compounds for two times with 72-hour interval. At the end of treatment, the supernatant was collected for viral markers measurements, including HBsAg, HBeAg, HBV DNA and cytotoxicity. HBsAg and HBeAg were detected using alphalisa method using their specific antibodies. For HBV DNA detection, HBV DNA Quantitative Fluorescence Diagnostic Kit (Sansure Biotech Inc.) was used following the manufacture's protocol. Cytotoxicity was determined using Cell Counting Kit-8 (CCK8, Dojindo Molecular Technologies, Inc.).
On the technique in general: Tetrazolium dyes change colour on reduction, which living cells bring about.

Another series relates to HBsAg. In words: PHH HBV natural infection assay, HBsAg (alphalisa). As to conditions: Hepatitis B virus, Hepatocyte, 72 h, read-out: HBsAg IC50, HBV-infected primary human hepatocytes, supernatant, compound medium refreshed two times with 72-hour interval. As to the method: as §1
(§2) The compounds of the present invention were tested for their capacity to inhibit HBsAg and HBeAg as described herein.

In the next series the test system is HBeAg. The experiment in a line: PHH HBV natural infection assay, HBeAg (alphalisa). Conditions: Hepatitis B virus, Hepatocyte, 72 h, read-out: HbeAg IC50, HBV-infected primary human hepatocytes, supernatant, compound medium refreshed two times with 72-hour interval. The procedure:
as §1, §2
(In general: In Alpha technology, singlet oxygen from a donor bead excites a nearby acceptor bead.)

For `COCCOCC(=O)NS(=O)(=O)c1ccc(C(=O)N[C@H]2CC3(C2)C[C@H](c2nc4cc(Cl)ccc4o2)C3)o1` (single isomer, unassigned) [Example 78, (Sa)—N-[6-(5-chloro-1,3-benzoxazol-2-yl)spiro[3.3]heptan-2-yl]-5-[[2-(2-methoxyethoxy)acetyl]sulfamoyl]furan-2-carboxamide, or (Ra)—N-[6-(5-chloro-1,3-benzoxazol-2-yl)spiro[3.3]heptan-2-yl]-5-[[2-(2-methoxyethoxy)acetyl]sulfamoyl]furan-2-carboxamide], the cytotoxic concentration (CC50) at 144 h in series [1] is over 100 µM. Also, the IC50 in the series with HBsAg was 2450 nM; in the series with HBeAg it was 929 nM.
For `N=S(=O)(c1ccc(C(=O)NC2CC3(C2)CC(c2nc4cc(Cl)ccc4o2)C3)o1)N1CCCC1` (stereo not drawn) [Example 66, N-[6-(5-chloro-1,3-benzoxazol-2-yl)spiro[3.3]heptan-2-yl]-5-(pyrrolidin-1-ylsulfonimidoyl)furan-2-carboxamide], in that order: over 10 µM, 8180 nM and 3810 nM.
Molecule `O=C(NC1CC2(C1)CC(c1nc3cc(Cl)ccc3o1)C2)c1ccc(S(=O)(=O)NC(=O)C2CCCS(=O)(=O)C2)o1` (stereo not drawn) [Example 85, N-[6-(5-chloro-1,3-benzoxazol-2-yl)spiro[3.3]heptan-2-yl]-5-[(1,1-dioxothiane-3-carbonyl)sulfamoyl]furan-2-carboxamide] had a CC50 at 144 h in series [1] of over 10 µM. For the same molecule, the IC50 turned out to be 2520 nM in the series on HBsAg and 1660 nM with HBeAg.
Consider `O=C(NC1CC2(C1)CC(c1nc3cc(Cl)ccc3o1)C2)c1cc(C(F)(F)F)n[nH]1` (stereo not drawn) [Example 12, N-[6-(5-chloro-1,3-benzoxazol-2-yl)spiro[3.3]heptan-2-yl]-3-(trifluoromethyl)-1H-pyrazole-5-carboxamide], for which, in series [1], the CC50 at 144 h was determined as 30.2 µM. The IC50 stood at 3960 nM in the series with HBsAg and 6860 nM in the series with HBeAg.
For `COCCOCCOCC(=O)NS(=O)(=O)c1ccc(C(=O)N[C@H]2CC3(C2)C[C@H](c2nc4cc(Cl)ccc4o2)C3)o1` (single isomer, unassigned) [Example 79, (Sa)—N-[6-(5-chloro-1,3-benzoxazol-2-yl)spiro[3.3]heptan-2-yl]-5-[[2-[2-(2-methoxyethoxy)ethoxy]acetyl]sulfamoyl]furan-2-carboxamide, or (Ra)—N-[6-(5-chloro-1,3-benzoxazol-2-yl)spiro[3.3]heptan-2-yl]-5-[[2-[2-(2-methoxyethoxy)ethoxy]acetyl]sulfamoyl]furan-2-carboxamide], in that order: over 10 µM, 6130 nM and 4650 nM.
For `CNS(=O)(=O)c1ccc(C(=O)NC2CC3(C2)CC(c2nc4cc(Cl)ccc4o2)C3)o1` (stereo not drawn) [Example 88, N-[6-(5-chloro-1,3-benzoxazol-2-yl)spiro[3.3]heptan-2-yl]-5-(methylsulfamoyl)furan-2-carboxamide], in that order: over 10 µM, 1000 nM and 687 nM.
For `[H][C@]1(NC(=O)c2ccc([S@](=N)(=O)C3CC3)o2)C[C@]2(C1)C[C@]([H])(c1nc3cc(Cl)ccc3o1)C2` (stereo partly drawn) [Example 53-c, (Ra)—N-[6-(5-chloro-1,3-benzoxazol-2-yl)spiro[3.3]heptan-2-yl]-5-[(R)-cyclopropylsulfonimidoyl]furan-2-carboxamide], in that order: 91.9 µM, 650 nM and 621 nM.
Regarding `Cn1cc(C(=O)NC2CC3(C2)CC(c2nc4cc(Cl)ccc4o2)C3)cn1` (stereo not drawn) [Example 13, N-[6-(5-chloro-1,3-benzoxazol-2-yl)spiro[3.3]heptan-2-yl]-1-methyl-pyrazole-4-carboxamide], the CC50 at 144 h in series [1] was over 100 µM. Besides, the half-inhibitory concentration (IC50) was 9820 nM in the series with HBsAg and 6200 nM in the series on HBeAg.
Taken in the same sequence, the figures for `CN(C)S(=O)(=O)c1ccc(C(=O)NC2CC3(C2)CC(c2nc4cc(Cl)ccc4o2)C3)o1` (stereo not drawn) [Example 89, N-[6-(5-chloro-1,3-benzoxazol-2-yl)spiro[3.3]heptan-2-yl]-5-(dimethylsulfamoyl)furan-2-carboxamide] were over 10 µM, 1040 nM and 723 nM.

Usually CC50 stands for the concentration at which the toxic effect on the cells reaches its halfway point. As a reminder, the IC50 is the concentration that inhibits the measured activity by half.
